Activity calls are given as the source filed them.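 How the source made its calls: active means IC50 below 100 µM in the TR-FRET assay, unless also active in the caspase-3 counter assay; inactive means the rest, including compounds also active in caspase-3.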
Molecular target: Caspase-3 (Homo sapiens) (UniProt P42574)
Test: caspase-3 inhibitors as false-positive filter, SAR follow-up, counter-screen for UBC13 polyubiquitin inhibitor project, biochemical, luminescence, Caspase-Glo 3/7, set 3 (AID 602207)
Conditions: recombinant caspase-3, Caspase-Glo luminescence, 60 min

Chain of Caspase-3 (Homo sapiens) (P42574 whole entry, looked up): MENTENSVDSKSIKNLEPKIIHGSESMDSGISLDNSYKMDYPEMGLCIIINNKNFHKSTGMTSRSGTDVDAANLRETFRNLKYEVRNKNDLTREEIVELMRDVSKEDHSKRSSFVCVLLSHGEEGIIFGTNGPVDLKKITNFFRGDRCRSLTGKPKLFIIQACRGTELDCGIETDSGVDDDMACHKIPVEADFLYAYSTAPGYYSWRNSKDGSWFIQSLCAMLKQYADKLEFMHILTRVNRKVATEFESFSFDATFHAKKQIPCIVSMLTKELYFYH

Structure (SMILES) | IC50
CCOc1ccc(CCNC(=O)CCCCCN2C(=O)c3ccccc3C2=O)cc1OCC | > 100 µM (inactive)
COc1ccc(NC(=O)C2CCN(c3ncnc4c3nc3n4CCCCC3)CC2)cc1Cl | > 100 µM (inactive)
O=C(Nc1ccc(CN2CCCCC2)cc1)C1CCN(c2ncnc3c2nc2n3CCCCC2)CC1 | > 100 µM (inactive)
O=C(CCCCCN1C(=O)c2ccccc2C1=O)NCCc1ccccc1 | > 100 µM (inactive)
COc1ccc(Cl)cc1NC(=O)C1CCN(c2ncnc3c2nc2n3CCCCC2)CC1 | > 100 µM (inactive)
COc1cc(Cl)c(C)cc1NC(=O)C1CCN(c2ncnc3c2nc2n3CCCCC2)CC1 | > 100 µM (inactive)
COc1cc(OC)c(NC(=O)C2CCN(c3ncnc4c3nc3n4CCCCC3)CC2)cc1Cl | > 100 µM (inactive)
Cc1ccc(NC(=O)C2CCN(c3ncnc4c3nc3n4CCCCC3)CC2)c(Cl)c1 | > 100 µM (inactive)
Cc1cc(Cl)ccc1NC(=O)C1CCN(c2ncnc3c2nc2n3CCCCC2)CC1 | > 100 µM (inactive)
Cc1ccc(NC(=O)C2CCN(c3ncnc4c3nc3n4CCCCC3)CC2)cc1F | > 100 µM (inactive)
O=C(Nc1cc(F)ccc1F)C1CCN(c2ncnc3c2nc2n3CCCCC2)CC1 | > 100 µM (inactive)
O=C(Nc1cccc(Cl)c1)C1CCN(c2ncnc3c2nc2n3CCCCC2)CC1 | > 100 µM (inactive)
c1ccc(CN2CCN(c3ncnc4c3nc3n4CCCC3)CC2)cc1 | > 100 µM (inactive)
CC1CN(S(=O)(=O)c2ccc(NC(=O)CCCCCN3C(=O)c4ccccc4C3=O)cc2)CC(C)O1 (centres undefined) | > 100 µM (inactive)
Fc1ccccc1N1CCN(c2ncnc3c2nc2n3CCCC2)CC1 | > 100 µM (inactive)
c1nc(N2CCC(N3CCCCC3)CC2)c2nc3n(c2n1)CCCC3 | > 100 µM (inactive)
Cc1c(Cl)cccc1NC(=O)C1CCN(c2ncnc3c2nc2n3CCCCC2)CC1 | > 100 µM (inactive)
Cc1ccc(NC(=O)C2CCN(c3ncnc4c3nc3n4CCCCC3)CC2)cc1C | > 100 µM (inactive)
Cc1ccc(Cl)cc1N1CCN(c2ncnc3c2nc2n3CCCC2)CC1 | > 100 µM (inactive)
